Results: patent US10294202B2, “Pyrrolidinones as herbicides” (FMC Corporation, priority 2013, dated 2019)

Legend:
corn = assay: Test C pre-/postemergence herbicide test; assay type: in vivo, Zea mays; conditions: Preemergence; for Plant response rating, Corn: 125 g ai/ha; for Plant response rating (scale of 0 to 100), Corn: 250 g ai/ha
Text: (§1) Seeds of plant species selected from blackgrass (Alopecurus myosuroides), ryegrass, Italian (Italian ryegrass, Lolium multiflorum), wheat (winter wheat, Triticum aestivum), galium (catchweed bedstraw, Galium aparine), corn (Zea mays), crabgrass, large (large crabgrass, Digitaria sanguinalis), foxtail, giant (giant foxtail, Setaria faberii), johnsongrass (Sorghum halepense), lambsquarters (Chenopodium album), morningglory (Ipomoea coccinea), nutsedge, yellow (yellow nutsedge, Cyperus esculentus), pigweed (Amaranthus retroflexus), ragweed (common ragweed, Ambrosia elatior), soybean (Glycine max), barnyardgrass (Echinochloa crus-galli), oilseed rape (Brassica napus), waterhemp (common waterhemp, Amaranthus rudis), kochia (Kochia scoparia), oat, wild (wild oat, Avena fatua), surinam grass (Brachiaria decumbens), foxtail, green (green foxtail, Setaria viridis), goosegrass (Eleusine indica), bromegrass, downy (downy bromegrass, Bromus tectorum), nightshade (eastern black nightshade, Solanum ptycanthum), cocklebur (common cocklebur, Xanthium strumarium), cupgrass, woolly (woolly cupgrass, Eriochloa villosa), bermudagrass (Cynodon dactylon), sunflower, (common oilseed sunflower, Helianthus annuus), Russian thistle (Salsola kali) and velvetleaf (Abutilon theophrasti) were planted into a blend of loam soil and sand and treated preemergence with test chemicals formulated in a non-phytotoxic solvent mixture which included a surfactant. At the same time, plants selected from these crop and weed species and also barley (winter barley, Hordeum vulgare), […]), chickweed (common chickweed, Stellaria media), deadnettle (henbit deadnettle, Lamium amplexicaule), and canarygrass (littleseed canarygrass, Phalaris minor) were planted in pots containing Redi-Earth® planting medium (Scotts Company, 14111 Scottslawn Road, Marysville, Ohio 43041) comprising spaghnum peat moss, vermiculite, wetting agent and starter nutrients and treated with postemergence applications of test chemicals formulated in the same manner. Plants ranged in height from 2 to 18 cm (1- to 4-leaf stage) for postemergence treatments. Treated plants and controls were maintained in a greenhouse for 13 to 15 days, after which time all species were compared to controls and visually evaluated. Plant response ratings, summarized in Table C, are based on a scale of 0 to 100 where 0 is no effect and 100 is complete control. A dash (-) response means no test result.

soybean = assay: Test C pre-/postemergence herbicide test; assay type: in vivo, Glycine max; conditions: Preemergence; for Plant response rating, Soybean: 125 g ai/ha
Text: as §1

pigweed = assay: Test C pre-/postemergence herbicide test; assay type: in vivo, Amaranthus retroflexus; conditions: Preemergence; for Plant response rating, Pigweed: 125 g ai/ha
Text: as §1

oilseed rape = assay: Test C pre-/postemergence herbicide test; assay type: in vivo, Brassica napus; conditions: Preemergence; for Plant response rating, Oilseed Rape: 125 g ai/ha; for Plant response rating (scale of 0 to 100), Oilseed Rape: 250 g ai/ha
Text: as §1

rice = assay: Test B flooded paddy test; assay type: in vivo, Oryza sativa; conditions: 500 g ai/ha, Flood; scale of 0 to 100 where 0 is no effect and 100 is complete control
Method in brief: (§2)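 2-leaf plants; flood 3 cm over soil; compound into paddy water; depth held. Greenhouse 13–15 d. Visual rating vs controls, 0 (no effect) to 100 (complete control); dash = not tested.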

morningglory = assay: Test C pre-/postemergence herbicide test; assay type: in vivo, Ipomoea coccinea; conditions: Preemergence; for Plant response rating, Morningglory: 125 g ai/ha; for Plant response rating (scale of 0 to 100), Morningglory: 250 g ai/ha
Text: as §1

velvetleaf = assay: Test C pre-/postemergence herbicide test; assay type: in vivo, Abutilon theophrasti; conditions: Preemergence; for Plant response rating, Velvetleaf: 125 g ai/ha
Text: as §1

waterhemp = assay: Test C pre-/postemergence herbicide test; assay type: in vivo, Amaranthus rudis; conditions: Preemergence; for Plant response rating, Waterhemp: 125 g ai/ha
Text: as §1

ducksalad = assay: Test B flooded paddy test; assay type: in vivo, Heteranthera limosa; conditions: 500 g ai/ha, Flood; scale of 0 to 100 where 0 is no effect and 100 is complete control
Method in brief: as §2

wheat (winter wheat) = assay: Test C pre-/postemergence herbicide test; assay type: in vivo, Triticum aestivum; conditions: Preemergence
Text: as §1

barnyardgrass = assay: Test C pre-/postemergence herbicide test; assay type: in vivo, Echinochloa crus-galli; conditions: Preemergence; for Plant response rating, Barnyardgrass: 125 g ai/ha; for Plant response rating (scale of 0 to 100; 0 is no effect, 100 is complete control), Barnyardgrass: 250 g ai/ha
Text: as §1

[1] = 31 g ai/ha, scale 0 to 100, 0 is no effect and 100 is complete control
[2] = 62 g ai/ha, scale 0 to 100 (0 no effect, 100 complete control)
[3] = scale 0 to 100 (0 no effect, 100 complete control)

| Structure (SMILES) | Corn plant response rating (corn; [1]) | Corn plant response rating (corn; [2]) | Plant response rating (scale of 0 to 100), Corn (corn) | Soybean plant response rating (soybean; [2]) | Pigweed plant response rating (pigweed; [1]) | Pigweed plant response rating (pigweed; [2]) | Oilseed Rape plant response rating (oilseed rape; [1]) | Oilseed Rape plant response rating (oilseed rape; [2]) | Plant response rating (scale of 0 to 100), Oilseed Rape (oilseed rape) | Plant response rating, Rice (rice) | Morningglory plant response rating (morningglory; [1]) | Morningglory plant response rating (morningglory; [2]) | Plant response rating (scale of 0 to 100), Morningglory (morningglory) | Velvetleaf plant response rating (velvetleaf; [2]) | Waterhemp plant response rating (waterhemp; [2]) | Plant response rating, Ducksalad (ducksalad) | Wheat plant response rating (wheat (winter wheat); [2]) | Barnyardgrass plant response rating (barnyardgrass; [1]) | Barnyardgrass plant response rating (barnyardgrass; [2]) | Plant response rating, Barnyardgrass (barnyardgrass; [3]) | further results |
| --- | --- | --- | --- | --- | --- | --- | --- | --- | --- | --- | --- | --- | --- | --- | --- | --- | --- | --- | --- | --- | --- |
| O=C1NCC(c2cc(F)cc(F)c2)C1C(=O)Nc1ccccc1Cl (racemic) [Compound 280] | 0 | 0 | 5 | 5 | 10 | 0 | 0 | 30 | 0 | 0 | 10 | 25 | 30 | 0 | 65 | 100 | 0 | 55 | 65 | 85 | Plant response rating, Corn (corn; [3]): 0; Soybean plant response rating (soybean; [1]): 0; Plant response rating, Soybean (soybean; [3]): 0; Plant response rating (scale of 0 to 100), Soybean (soybean; 250 g ai/ha): 0; Plant response rating, Pigweed (pigweed; [3]): 20; Plant response rating (scale of 0 to 100), Pigweed (pigweed; 250 g ai/ha): 20; Plant response rating, Oilseed Rape (oilseed rape; [3]): 0; Plant response rating, Morningglory (morningglory; [3]): 0; Velvetleaf plant response rating (velvetleaf; [1]): 0; Plant response rating, Velvetleaf (velvetleaf; [3]): 0; Plant response rating (scale of 0 to 100), Velvetleaf (velvetleaf; 250 g ai/ha): 10; Waterhemp plant response rating (waterhemp; [1]): 0; Plant response rating, Waterhemp (waterhemp; [3]): 75; Plant response rating (scale of 0 to 100), Waterhemp (waterhemp; 250 g ai/ha): 35; Wheat plant response rating (wheat (winter wheat); [1]): 0; Plant response rating (scale of 0 to 100), Wheat (wheat (winter wheat); 250 g ai/ha): 0; Plant response rating (scale of 0 to 100; 0 is no effect, 100 is complete control), Barnyardgrass (barnyardgrass): 95 |
| CC(C)c1cccc(C2CNC(=O)C2C(=O)Nc2cccc(F)c2F)c1 (stereo not drawn) [Compound 319] | 0 | 30 | 65 | 0 | 30 | 25 | 0 | 5 | 65 | 0 | 55 | 40 | 40 | 20 | 35 | 100 | 0 | 90 | 95 | 95 | Plant response rating, Corn (corn; scale 0 to 100): 60; Plant response rating, Soybean (soybean; scale 0 to 100): 0; Plant response rating, Pigweed (pigweed; scale 0 to 100): 40; Plant response rating, Oilseed Rape (oilseed rape; scale 0 to 100): 60; Plant response rating, Morningglory (morningglory; scale 0 to 100): 45; Plant response rating, Velvetleaf (velvetleaf; scale 0 to 100): 45; Plant response rating, Waterhemp (waterhemp; scale 0 to 100): 35; Plant response rating, Wheat (wheat (winter wheat); 125 g ai/ha, scale 0 to 100): 10; Plant response rating (scale of 0 to 100; 0 is no effect, 100 is complete control), Barnyardgrass (barnyardgrass): 98 |
